According to paper PMC10822893, “Selective herbicide safening in dicot plants: a case study in Arabidopsis” (Frontiers in Plant Science, 2024):

Assays:
[1] = target: T1, AtGSTU19 (Arabidopsis thaliana, UniProt Q9ZRW8); assay: UPLC-qTOF MS initial velocities, Michaelis-Menten non-linear regression; assay type: biochemical; conditions: co-substrate glutathione; unit printed as µmol (amount, not concentration)
T1 construct: gene GSTU19
Description: UPLC-qTOF MS initial velocities, Michaelis-Menten non-linear regression on AtGSTU19

[2] = target: T2, AtGSTU7 (Arabidopsis thaliana, UniProt Q9ZW24); assay: as above; assay type: biochemical; conditions: co-substrate glutathione; unit printed as µmol (amount, not concentration)
T2 construct: gene GSTU7
T2 sequence (Q9ZW24 1-227): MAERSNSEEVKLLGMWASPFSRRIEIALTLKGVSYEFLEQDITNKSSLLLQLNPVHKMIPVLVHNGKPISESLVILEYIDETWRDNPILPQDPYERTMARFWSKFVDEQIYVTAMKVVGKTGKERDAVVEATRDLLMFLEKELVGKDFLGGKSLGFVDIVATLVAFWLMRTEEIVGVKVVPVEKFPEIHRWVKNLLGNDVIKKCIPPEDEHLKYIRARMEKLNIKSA
Description: UPLC-qTOF MS initial velocities, Michaelis-Menten non-linear regression on AtGSTU7

T1 sequence (Q9ZRW8 whole entry): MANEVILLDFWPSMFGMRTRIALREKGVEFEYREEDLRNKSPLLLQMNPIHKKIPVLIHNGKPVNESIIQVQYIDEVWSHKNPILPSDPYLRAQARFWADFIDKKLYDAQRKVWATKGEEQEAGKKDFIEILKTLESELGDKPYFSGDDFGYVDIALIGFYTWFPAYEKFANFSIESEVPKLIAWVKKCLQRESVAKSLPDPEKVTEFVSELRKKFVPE

## CC(C)N(C(=O)COc1nnc(C(F)(F)F)s1)c1ccc(F)cc1 [flufenacet]
[1]
  Km: 95.08 µmol
[2]
  Km: 109.57 µmol
